# Where “and” joins values, the source holds several entries; their conditions need not be identical. Equal entries are not always repeated. Residues, ends and D or L forms follow the SMILES beside them. *: point of attachment. Palmitoyl = CCCCCCCCCCCCCCCC(=O)*; AEEA = NCCOCCOCC(=O)O
# Assays:
# [1] = system: S. aureus NCTC8325; test: Bacterial pore formation (SYTO9/propidium iodide); type: cell-based; conditions: 37.5 µM Pam-3 (4x MIC), 10 min; Syto9 and propidium iodide
# Protocol: Pore formation was monitored using the Live/Dead BacLight bacterial viability kit (Molecular Probes)[60]. […] Samples were taken after 10 min of peptide treatment, then 0.2 µl of a 1:1 mixture of SYTO9 and propidium iodide (PI) was added and further incubated for 15 min at RT in the dark. […] Images were acquired with an Orca Flash 4.0 V2 camera (Hamamatsu), C Plan-Apo 63x/1.4 Oil DIC and alpha Plan-Apochromat 100x/1.46 Oil Ph3 objectives (Zeiss) and processed using the Zen software package (Zeiss).
# [2] = system: S. aureus ATCC25923; test: Treatment of established biofilms; type: cell-based; conditions: for viable bacteria in biofilm: 24 h old biofilm, 1 h treatment
# Protocol: (§1) Then, planktonic bacteria were removed by two wash steps with PBS. […] Afterward, adherent bacteria in each well were resuspended, and the number of viable bacteria was determined microbiologically. […] The biofilm degradation assay was performed in agreement with the original report describing this method first.
# [3] = system: S. Typhimurium; type: cell-based; conditions: radial diffusion assay
# Protocol: Antimicrobial activity was analyzed by radial diffusion assay. Log-phase bacteria were cultivated for up to 18 h in TSB (TSB, Becton Dickinson, USA), washed and diluted to 4 × 10^6 CFU in 10 ml agar. Bacteria were incubated in 10 ml of 10 mM sodium phosphate, pH 7.4, containing 0.3 mg/ml of TSB powder and 1% (w/v) low EEO-agarose (AppliChem). 1 µg of each lipopeptide was pipetted into punched wells in a final volume of 4 µl and diffused into the gel for 3 h at 37 °C. After that, a nutrient-rich gel with 6% TSB (w/v) and 1% agarose in 10 mM sodium phosphate buffer was poured on top of the first gel and incubated for up to 24 h at 37 °C. Then the diameter of inhibition zones was measured.
# [4] = system: S. aureus NCTC8325; test: Transmission and scanning electron microscopy; type: cell-based; conditions: 37.5 µM Pam-3 (4x MIC), 30 min
# From the text: As a control, bacteria were exposed to 0.01% acetic acid. Afterward bacteria were fixed in Karnovsky’s reagent.
# For transmission electron microscopy (TEM), bacteria were high-pressure frozen (HPF Compact 03, Engineering Office M. Wohlwend GmbH) in capillaries, freeze-substituted (AFS2, Leica Microsystems) with 2% OsO4 and 0.4% uranyl acetate in acetone as substitution medium and embedded in EPON. Ultrathin sections were stained with uranyl acetate and lead citrate and analyzed with a Tecnai Spirit (Thermo Fisher Scientific) operated at 120 kV.
# For scanning electron microscopy (SEM), bacteria were washed in PBS and finally fixed with 1% OsO4 on ice for 1 h. Next, samples were prepared on polylysin-coated coverslips, dehydrated in a graduated series to 100% ethanol and critical point dried (Polaron) with CO2. Finally, samples were sputter-coated with a 3 nm thick layer of platinum (Safematic CCu-010) and examined with a Hitachi Regulus 8230 field emission scanning electron microscope (Hitachi) at an accelerating voltage of 5 kV.
# [5] = system: C. rodentium strain ICC180; test: Citrobacter rodentium gastrointestinal infection in mice; type: in vivo, C57BL/6N mice
# Protocol: Bioluminescence expressing C. rodentium strain ICC180 was used for all infection experiments. C. rodentium inocula were prepared by culturing bacteria overnight at 37 °C in LB broth with 50 µg/ml kanamycin. Subsequently, the culture was diluted 1:100 in fresh medium, and sub-cultured for 4 h at 37 °C in LB broth. Bacteria were washed twice in phosphate-buffered saline (PBS). Mice were orally inoculated with 10^8 CFU of C. rodentium diluted in 200 µl PBS. Weight of the mice was monitored and feces were collected for measurements of the pathogen burden. After 5 days post infection mice received twice 250 µg peptide solved in 100 µl PBS or only PBS orally. The following day, mice were sacrificed to assess bacterial burden in the lumen and tissues of the cecum and the colon.
# All mice were euthanized by asphyxiation with CO2 at indicated time points. Intestinal tissues (small intestine, cecum, colon) were removed aseptically. To collect intestinal content, organs were flushed with PBS. Organs were opened longitudinally, cleaned thoroughly with PBS and weighted. Organs and content were homogenized in PBS using a Polytron homogenizer (Kinemtatica). Dilutions of homogenized samples were plated on LB plates containing 50 μg/ml kanamycin to determine CFUs.
# [6] = system: P. aeruginosa PAO1; test: Treatment of established biofilms; type: cell-based; design: viable bacteria in biofilm: unit not given here; conditions: for viable bacteria in biofilm: 24 h old biofilm, 1 h treatment
# Protocol: as §1
# [7] = two doses of 250 µg orally 5 days p.i., following day, individual animals, N = 11
smiles,measurement,setting,value
CCCCCCCCCCCCCCCC(=O)NCCOCCOCC(=O)N[C@@H](CCCNC(=N)N)C(=O)NCC(=O)N[C@@H](CCCCN)C(=O)N[C@@H](C)C(=O)N[C@@H](CCCCN)C(=O)N[C@@H](CS)C(=O)N[C@@H](CS)C(=O)N[C@@H](CCCCN)C(=O)O [Pam-3] ({Palmitoyl-AEEA}-RGKAKCCK-OH; C-terminus assumed),pore formation (in words),[1],strong influx of PI
same,eradication of bacteria in biofilms,"[2]; 300 µM, within 1 h, Kruskal–Wallis p = 0.0026",~ 99.99%
same,viable bacteria in biofilm,"[2]; 9.375 µM Pam-3, experiment 1",43066667 CFU/ml
same,viable bacteria in biofilm,"[2]; 9.375 µM Pam-3, experiment 2",6050000 CFU/ml
same,viable bacteria in biofilm,"[2]; 9.375 µM Pam-3, experiment 3",15666667 CFU/ml
same,viable bacteria in biofilm,"[2]; 18.75 µM Pam-3, experiment 1",32200000 CFU/ml
same,viable bacteria in biofilm,"[2]; 18.75 µM Pam-3, experiment 2",3550000 CFU/ml
same,viable bacteria in biofilm,"[2]; 18.75 µM Pam-3, experiment 3",17250000 CFU/ml
same,viable bacteria in biofilm,"[2]; 37.5 µM Pam-3, experiment 1",27300000 CFU/ml
same,viable bacteria in biofilm,"[2]; 37.5 µM Pam-3, experiment 2",2333333 CFU/ml
same,viable bacteria in biofilm,"[2]; 37.5 µM Pam-3, experiment 3",5966667 CFU/ml
same,viable bacteria in biofilm,"[2]; 75 µM Pam-3, experiment 1",1496667 CFU/ml
same,viable bacteria in biofilm,"[2]; 75 µM Pam-3, experiment 2",239889 CFU/ml
same,viable bacteria in biofilm,"[2]; 75 µM Pam-3, experiment 3",3451667 CFU/ml
same,viable bacteria in biofilm,"[2]; 150 µM Pam-3, experiment 1",150333 CFU/ml
same,viable bacteria in biofilm,"[2]; 150 µM Pam-3, experiment 2",9167 CFU/ml
same,viable bacteria in biofilm,"[2]; 150 µM Pam-3, experiment 3",24500 CFU/ml
same,viable bacteria in biofilm,"[2]; 300 µM Pam-3, experiment 1",67 CFU/ml
same,viable bacteria in biofilm,"[2]; 300 µM Pam-3, experiment 2",333 CFU/ml
same,viable bacteria in biofilm,"[2]; 300 µM Pam-3, experiment 3",1300 CFU/ml
same,inhibition of S. Typhimurium growth (in words),[3],consistently inhibited
same,"bacterial morphology, TEM (in words)",[4],strong cell envelope damage with disrupted membranes and pores in most of the cells
same,viable Citrobacter in colon content and colon tissue vs PBS (in words),[5]; Mann–Whitney p = 0.0010 and p = 0.0104,significantly reduced
same,bacteria in cecum content and cecum tissue vs PBS (in words),[5]; Mann–Whitney p = 0.0104 and p = 0.0473,reduced the number of bacteria
same,C. rodentium in cecum content,[5]; [7],20533880 CFU/g and 455636 CFU/g and 278413400 CFU/g and 15654650 CFU/g and 366007 CFU/g and 16133443 CFU/g and 143723333 CFU/g and 2819342 CFU/g and 262402624 CFU/g and 251094891 CFU/g and 226500566 CFU/g
same,C. rodentium in cecum tissue,[5]; [7],490000 CFU/g and 307086614 CFU/g and 556897 CFU/g and 3530864 CFU/g and 21702128 CFU/g and 74039735 CFU/g and 1204147 CFU/g and 780234 CFU/g and 18903800 CFU/g and 586941 CFU/g and 191336 CFU/g
same,C. rodentium in colon content,[5]; [7],1762185 CFU/g and 60751515 CFU/g and 1789819 CFU/g and 315018315 CFU/g and 310211946 CFU/g and 1173126615 CFU/g and 2621359 CFU/g and 289220 CFU/g and 25236170 CFU/g and 708075 CFU/g and 1616071 CFU/g
same,C. rodentium in colon tissue,[5]; [7],58623.6 CFU/g and 30241621 CFU/g and 100000 CFU/g and 24432209 CFU/g and 42962357 CFU/g and 13239974 CFU/g and 61561.6 CFU/g and 13820.3 CFU/g and 2719752 CFU/g and 44329.9 CFU/g and 628386 CFU/g
same,elimination of bacteria in biofilms (in words),"[6]; 300 µM, within 1 h, Kruskal–Wallis p = 0.0074",eliminated
same,viable bacteria in biofilm,"[6]; 9.375 µM Pam-3, experiment 1",1541667
same,viable bacteria in biofilm,"[6]; 9.375 µM Pam-3, experiment 2",3730000
same,viable bacteria in biofilm,"[6]; 9.375 µM Pam-3, experiment 3",2210000
same,viable bacteria in biofilm,"[6]; 18.75 µM Pam-3, experiment 1",800000
same,viable bacteria in biofilm,"[6]; 18.75 µM Pam-3, experiment 2",125000
same,viable bacteria in biofilm,"[6]; 18.75 µM Pam-3, experiment 3",1510000
same,viable bacteria in biofilm,"[6]; 37.5 µM Pam-3, experiment 1",70000
same,viable bacteria in biofilm,"[6]; 37.5 µM Pam-3, experiment 2",21111
same,viable bacteria in biofilm,"[6]; 37.5 µM Pam-3, experiment 3",362889
same,viable bacteria in biofilm,"[6]; 75 µM Pam-3, experiment 1",1100
same,viable bacteria in biofilm,"[6]; 75 µM Pam-3, experiment 2",67067
same,viable bacteria in biofilm,"[6]; 75 µM Pam-3, experiment 3",5525
same,viable bacteria in biofilm,"[6]; 150 µM Pam-3, experiment 1",333
same,viable bacteria in biofilm,"[6]; 150 µM Pam-3, experiment 2",433
same,viable bacteria in biofilm,"[6]; 150 µM Pam-3, experiment 3",167
same,viable bacteria in biofilm,"[6]; 300 µM Pam-3, 1 = no growth, experiment 1",1
same,viable bacteria in biofilm,"[6]; 300 µM Pam-3, 1 = no growth, experiment 2",1
same,viable bacteria in biofilm,"[6]; 300 µM Pam-3, 1 = no growth, experiment 3",1

# Reference: paper PMC7794397, “Curbing gastrointestinal infections by defensin fragment modifications without harming commensal microbiota” (Communications Biology, 2021)
